Data from US20200147039A1, “COMPOUNDS USEFUL IN INHIBITING HUMAN TREFOIL FACTOR 3” (NATIONAL UNIVERSITY OF SINGAPORE, priority 2017, published 2020).

Key:
MKN-28 = assay: AlamarBlue cell viability assay, MKN-28; type: cell-based; conditions: Homo sapiens, Gastric
Description: (§1) The human immortalized mammary epithelial cell lines, MCF10A, and MCF12A; and immortalized hepatocellular epithelial cell line, LO2 were obtained from the American Type Culture Collection (ATCC, Rockville, Md.) and were cultured as per ATCC propagation instructions. MC cell lines, MCF7, T47D, BT474, BT20, MDA-MB-361, MDA-MB-436, MDA-MB-468, and MDA-MB-231; endometrial carcinoma cell lines, Ishikawa, ECC1, RL95-2 and AN3; hepatocellular carcinoma cell lines, Hep3B, H2P, and H2M; colon carcinoma cell lines, DLD-1, and Caco-2; and prostate carcinoma cell lines, PC3, LNCaP, and DU145 were obtained from the American Type Culture Collection (ATCC, Rockville, Md.). Pancreatic carcinoma cell lines, AsPC-1 and BxPC-3; Lung carcinoma cell lines, HCC-827, NCI-H1975, HCC-4006, PC-14, and NCI-H1299; and Thyroid carcinoma cell lines HTH83, CAL62, T238, and OGK-M were obtained from Prof. H. Phillip Koeffler's laboratory at The Cancer Science Institute of Singapore, National University of Singapore (NUS). Gastric carcinoma cell lines, AGS, MKN-28, MKN-45, and A2-528 were obtained from Prof. […]
(§2) In table 9 IC50 values of compound 43 compound library in several cancer cell lines are tabulated, using an AlamarBlue® cell viability assay as previously described in Pandey V et al., Breast Cancer Res. 2014; 16(5):429. Statistical analysis was assessed by using GraphPad Prism5. […]

MDA-MB-436 = assay: AlamarBlue cell viability assay, MDA-MB-436; type: cell-based; conditions: Homo sapiens, Mammary
From the text: (§3) (A) Inhibitory concentration 50% (IC50) values for compound 43 in the MC cell lines are tabulated, using an AlamarBlue™ cell viability assay as previously described in Pandey V et al., Breast Cancer Res. 2014; 16(5):429. (B) Measured dose-dependent manner effect of compound 43 on the viability of MC cells (left-side, TFF3-high and right, TFF3-low) using AlamarBlue™ viability assay as previously described (ibid). (C) Apoptotic cell death of mammary carcinoma cell lines measured after treatment with 10 μM compound 43 using flow cytometry analysis at 24 hour as described previously in Keerthy H K et al., PloS one. 2014; 9(9):e107118. Annexin V-FITC staining is indicated on the X-axis and PI staining on the Y-axis. […] Acquisition of Annexin V and PI data were represented as percentage (%) in each quadrant. Note: CM, conditioned media; MCF10A and MCF12A, non-transformed immortalized-mammary epithelial cell line. Points are mean of triplicate experiments; bars, ±SD. Statistical significance was assessed by using an unpaired two-tailed Student's t test (P<0.05 was considered as significant) using GraphPad Prism5. […]
as §2

PC3 = assay: AlamarBlue cell viability assay, PC3; type: cell-based; conditions: Homo sapiens, PC-3, Prostate
Description: as §1, §2

LNCaP = assay: AlamarBlue cell viability assay, LNCaP; type: cell-based; conditions: Homo sapiens, Prostate
Description: as §1, §2

H1975 = assay: AlamarBlue cell viability assay, H1975; type: cell-based; conditions: Homo sapiens, NCI-H1975, Lung
Description: as §1, §2

AN3 = assay: AlamarBlue cell viability assay, AN3; type: cell-based; conditions: Homo sapiens, Endometrial
Description: as §1, §2

BT474 = assay: AlamarBlue cell viability assay, BT474; type: cell-based; conditions: Homo sapiens, BT-474, Mammary
From the text: as §3, §2

Caco-2 = assay: AlamarBlue cell viability assay, Caco-2; type: cell-based; conditions: Homo sapiens, Colon
Description: as §1, §2

HTH83 = assay: AlamarBlue cell viability assay, HTH83; type: cell-based; conditions: Homo sapiens, Thyroid
Description: as §1, §2

MKN-45 = assay: AlamarBlue cell viability assay, MKN-45; type: cell-based; conditions: Homo sapiens, Gastric
Description: as §1, §2

AsPC-1 = assay: AlamarBlue cell viability assay, AsPC-1; type: cell-based; conditions: Homo sapiens, ASPC1, Pancreatic
Description: as §1, §2

H1299 = assay: AlamarBlue cell viability assay, H1299; type: cell-based; conditions: Homo sapiens, NCI-H1299, Lung
Description: as §1, §2

MCF-7 = assay: AlamarBlue cell viability assay, MCF7; type: cell-based, human
From the text: (§4) (A) Inhibitory concentration 50% (IC50) values for compound 43 in the MC cell lines are tabulated, using an AlamarBlue™ cell viability assay as previously described in Pandey V et al., Breast Cancer Res. 2014; 16(5):429. (B) Measured dose-dependent manner effect of compound 43 on the viability of MC cells (left-side, TFF3-high and right, TFF3-low) using AlamarBlue™ viability assay as previously described (ibid). (C) Apoptotic cell death of mammary carcinoma cell lines measured after treatment with 10 μM compound 43 using flow cytometry analysis at 24 hour as described previously in Keerthy H K et al., PloS one. 2014; 9(9):e107118. Annexin V-FITC staining is indicated on the X-axis and PI staining on the Y-axis. […] Acquisition of Annexin V and PI data were represented as percentage (%) in each quadrant. Note: CM, conditioned media; MCF10A and MCF12A, non-transformed immortalized-mammary epithelial cell line. Points are mean of triplicate experiments; bars, ±SD. Statistical significance was assessed by using an unpaired two-tailed Student's t test (P<0.05 was considered as significant) using GraphPad Prism5. Columns are mean of triplicate experiments; bars, ±SD. **P<0.001, *P<0.05.
The human immortalized mammary epithelial cell lines, MCF10A, and MCF12A; and immortalized hepatocellular epithelial cell line, LO2 were obtained from the American Type Culture Collection (ATCC, Rockville, Md.) and were cultured as per ATCC propagation instructions. MC cell lines, MCF7, T47D, BT474, BT20, MDA-MB-361, MDA-MB-436, MDA-MB-468, and MDA-MB-231; endometrial carcinoma cell lines, Ishikawa, ECC1, RL95-2 and AN3; hepatocellular carcinoma cell lines, Hep3B, H2P, and H2M; colon carcinoma cell lines, DLD-1, and Caco-2; and prostate carcinoma cell lines, PC3, LNCaP, and DU145 were obtained from the American Type Culture Collection (ATCC, Rockville, Md.). Pancreatic carcinoma cell lines, AsPC-1 and BxPC-3; Lung carcinoma cell lines, HCC-827, NCI-H1975, HCC-4006, PC-14, and NCI-H1299; and Thyroid carcinoma cell lines HTH83, CAL62, T238, and OGK-M were obtained from Prof. H. Phillip Koeffler's laboratory at The Cancer Science Institute of Singapore, National University of Singapore (NUS). Gastric carcinoma cell lines, AGS, MKN-28, MKN-45, and A2-528 were obtained from Prof. Yoshiaki Ito's laboratory at The Cancer Science Institute of Singapore, NUS. All cell lines were cultured as per ATCC propagation instructions.
The above synthesised compounds were initially evaluated against a range of carcinoma cells using an AlamarBlue™ cell viability assay (using the protocol discussed above). The tested compounds were generally efficacious at reducing the viability of various carcinoma cells compared to vehicle (DMSO) treated cells. Table 8 provides selected IC50 data for certain of the compounds synthesised herein against MCF-7.
In table 9 IC50 values of compound 43 compound library in several cancer cell lines are tabulated, using an AlamarBlue® cell viability assay as previously described in Pandey V et al., Breast Cancer Res. 2014; 16(5):429. Statistical analysis was assessed by using GraphPad Prism5. Note: NV, no value.

H2M = assay: AlamarBlue cell viability assay, H2M; type: cell-based; conditions: Homo sapiens, Hepatocellular
Description: as §1, §2

DU145 = assay: AlamarBlue cell viability assay, DU145; type: cell-based; conditions: Homo sapiens, DU-145, Prostate
Description: as §1, §2

T47D = assay: AlamarBlue cell viability assay, T47D; type: cell-based; conditions: Homo sapiens, Mammary
From the text: as §3, §2

PC-14 = assay: AlamarBlue cell viability assay, PC-14; type: cell-based; conditions: Homo sapiens, Lung
Description: as §1, §2

Hep3B = assay: AlamarBlue cell viability assay, Hep3B; type: cell-based; conditions: Homo sapiens, Hepatocellular
Description: as §1, §2

Ishikawa = assay: AlamarBlue cell viability assay, Ishikawa; type: cell-based; conditions: Homo sapiens, Endometrial
Description: as §1, §2

[1] = tested on: TFF3-high expressing mammary carcinoma (MC) cell lines; assay: AlamarBlue viability and Annexin V-FITC/PI flow cytometry in mammary carcinoma cell lines (FIG. 1); type: cell-based, human
From the text: as §4

MDA-MB-361 = assay: AlamarBlue cell viability assay, MDA-MB-361; type: cell-based; conditions: Homo sapiens, Mammary
From the text: as §3, §2

OGK-M = assay: AlamarBlue cell viability assay, OGK-M; type: cell-based; conditions: Homo sapiens, Thyroid
Description: as §1, §2

MDA-MB-231 = assay: AlamarBlue cell viability assay, MDA-MB-231; type: cell-based; conditions: Homo sapiens, Mammary
From the text: as §3, §2

AGS = assay: AlamarBlue cell viability assay, AGS; type: cell-based; conditions: Homo sapiens, Gastric
Description: as §1, §2

RL95-2 = assay: AlamarBlue cell viability assay, RL95-2; type: cell-based; conditions: Homo sapiens, Endometrial
Description: as §1, §2

HCC827 = assay: AlamarBlue cell viability assay, HCC827; type: cell-based; conditions: Homo sapiens, Lung
Description: as §1, §2

**Q.** With Cc1cc(-c2ccc(C3C(C#N)=C(N)Oc4c3c(=O)oc3ccccc43)cc2)cnc1F (centres unmarked) [Compound 43, 2-Amino-4-(4-(6-fluoro-5-methylpyridin-3-yl)phenyl)-5-oxo-4H,5H-pyrano[3,2-c]chromene-3-carbonitrile] as the molecule, how does the IC50 (MKN-28) read?
**A.** 84.9 µM

**Q.** And the IC50 (MDA-MB-436)?
**A.** 396 µM

**Q.** And the IC50 (PC3)?
**A.** 680 nM

**Q.** What about the IC50 (LNCaP) of the same molecule?
**A.** 226 µM

**Q.** And the IC50 (H1975)?
**A.** 11.8 µM

**Q.** And the IC50 (AN3)?
**A.** 289 µM

**Q.** And the IC50 (BT474)?
**A.** 2690 nM

**Q.** What about the IC50 (Caco-2) of the same molecule?
**A.** 2840 nM

**Q.** And the IC50 (HTH83)?
**A.** 560 nM

**Q.** And the IC50 (MKN-45)?
**A.** 6.81 µM

**Q.** And the IC50 (AsPC-1)?
**A.** 4.41 µM

**Q.** And the IC50 (H1299)?
**A.** 18.6 µM

**Q.** And the IC50 (MCF-7; Homo sapiens, MCF7, MCF-7, AlamarBlue cell viability (Table 8))?
**A.** 3.21 µM

**Q.** And the IC50 (MCF-7; Homo sapiens, MCF7, Mammary, MCF7)?
**A.** 3.21 µM

**Q.** And the IC50 (MCF-7; MCF-7, AlamarBlue cell viability (Table 8))?
**A.** 4.51 µM

**Q.** What about the IC50 (H2M) of the same molecule?
**A.** 7.86 µM

**Q.** And the IC50 (DU145)?
**A.** 1910 nM

**Q.** And the IC50 (T47D)?
**A.** 5.24 µM

**Q.** What about the IC50 (PC-14) of the same molecule?
**A.** 24.2 µM

**Q.** And the IC50 (Hep3B)?
**A.** 8.44 µM

**Q.** What about the IC50 (Ishikawa) of the same molecule?
**A.** 940 nM

**Q.** What about the apoptosis ([1]; 10 μM, 24 hour, Annexin V-FITC/PI flow cytometry) of the same molecule?
**A.** stimulates apoptosis

**Q.** And the cell viability ([1]; AlamarBlue)?
**A.** suppresses cell viability

**Q.** What about the IC50 (MDA-MB-361) of the same molecule?
**A.** 1610 nM

**Q.** And the IC50 (OGK-M)?
**A.** 411 µM

**Q.** And the IC50 (MDA-MB-231)?
**A.** 408 µM

**Q.** What about the IC50 (AGS) of the same molecule?
**A.** 3.08 µM

**Q.** And the IC50 (RL95-2)?
**A.** 90.5 µM

**Q.** What about the IC50 (HCC827) of the same molecule?
**A.** 930 nM
